Measurements: patent US11399542B2, “Pesticidally active heterocyclic derivatives with sulfur containing substituents” (SYNGENTA PARTICIPATIONS AG, priority 2017, dated 2022)

Experiments:
Assay type in all cases: in vivo
[1] = tested on: Myzus persicae (Green Peach Aphid); assay: Example B5: Activity against Myzus persicae, sprayed sunflower leaf discs; conditions: foliar, 144 h, application rate 200 ppm, mixed-age aphids on sunflower leaf discs, 6 days after infestation
Description: (§1) Sunflower leaf discs were placed on agar in a 24-well microtiter plate and sprayed with aqueous test solutions prepared from 10′000 ppm DMSO stock solutions. After drying, the leaf discs were infested with an aphid population of mixed ages. The samples were assessed for mortality 6 days after infestation.

[2] = tested on: Myzus persicae (Green Peach Aphid); assay: Example B6: Activity against Myzus persicae, systemic via roots of pea seedlings; conditions: 144 h, test rate 24 ppm, pea seedling roots in test solution, 6 days
Description: Roots of pea seedlings infested with an aphid population of mixed ages were placed directly in the aqueous test solutions prepared from 10′000 DMSO stock solutions. The samples were assessed for mortality 6 days after placing seedlings in test solutions.

[3] = tested on: Euschistus heros (Neotropical Brown Stink Bug); assay: Example B9: Activity against Euschistus heros, sprayed soybean leaf; conditions: 120 h, application rate 200 ppm, N2 nymphs on soybean leaf, 5 days after infestation, read-out: effect in at least one of the two categories (mortality or growth inhibition)
Description: Soybean leaf on agar in 24-well microtiter plates were sprayed with aqueous test solutions prepared from 10′000 ppm DMSO stock solutions. After drying the leaf were infested with N2 nymphs. The samples were assessed for mortality and growth inhibition in comparison to untreated samples 5 days after infestation.

[4] = tested on: Plutella xylostella (Diamond Back Moth); assay: Example B12: Activity against Plutella xylostella, artificial diet, eggs; conditions: 192 h, application rate 200 ppm, eggs on artificial diet, 8 days after infestation, read-out: effect in at least one of the two categories (mortality or growth inhibition)
Description: 24-well microtiter plates with artificial diet were treated with aqueous test solutions prepared from 10′000 ppm DMSO stock solutions by pipetting. After drying, Plutella eggs were pipetted through a plastic stencil onto a gel blotting paper and the plate was closed with it. The samples were assessed for mortality and growth inhibition in comparison to untreated samples 8 days after infestation.

[5] = tested on: Diabrotica balteata (Corn Root Worm); assay: Example B4: Activity against Diabrotica balteata, sprayed maize sprouts; conditions: 96 h, application rate 200 ppm, L2 larvae on maize sprouts, 4 days after infestation, read-out: effect in at least one of the two categories (mortality or growth inhibition)
Description: Maize sprouts placed onto an agar layer in 24-well microtiter plates were treated with aqueous test solutions prepared from 10′000 ppm DMSO stock solutions by spraying. After drying, the plates were infested with L2 larvae (6 to 10 per well). The samples were assessed for mortality and growth inhibition in comparison to untreated samples 4 days after infestation.

[6] = tested on: Spodoptera littoralis (Egyptian Cotton Leaf Worm); assay: Example B1: Activity against Spodoptera littoralis, sprayed cotton leaf discs; conditions: foliar, 72 h, application rate 200 ppm, L1 larvae on cotton leaf discs, 3 days after infestation, read-out: control (at least one of mortality, anti-feedant effect, growth inhibition)
Description: Cotton leaf discs were placed onto agar in 24-well microtiter plates and sprayed with aqueous test solutions prepared from 10′000 ppm DMSO stock solutions. After drying the leaf discs were infested with five L1 larvae. The samples were assessed for mortality, anti-feeding effect, and growth inhibition in comparison to untreated samples 3 days after infestation. Control of Spodoptera littoralis by a test sample is given when at least one of the categories mortality, anti-feedant effect, and growth inhibition is higher than the untreated sample.

[7] = tested on: Frankliniella occidentalis (Western Flower Thrips); assay: Example B8: Activity against Frankliniella occidentalis, sprayed sunflower leaf discs; conditions: foliar, 168 h, application rate 200 ppm, mixed ages on sunflower leaf discs, 7 days after infestation
Description: as §1, with “in” for “in a”, “plates” for “plate”, “[…]” for “10′000 ppm”, “drying” for “drying,”, “a Frankliniella” for “an aphid”, “7” for “6”

Row | Compound | mortality at 200 ppm [1] [%] | mortality at 24 ppm [2] [%] | percent effect (mortality or growth inhibition) at 200 ppm [3] [%] | percent effect (mortality or growth inhibition) at 200 ppm [4] [%] | percent effect (mortality or growth inhibition) at 200 ppm [5] [%] | percent control (mortality, anti-feedant effect or growth inhibition) at 200 ppm [6] [%] | mortality at 200 ppm [7] [%]
1 | CCS(=O)(=O)c1cc2c(cc1-c1nc3cc(C(F)(F)F)cnc3n1C)n(S(=O)(=O)C1CC1)c(=O)n2C [Compound P13, 1-cyclopropylsulfonyl-5-ethylsulfonyl-3-methyl-6-[3-methyl-6-(trifluoromethyl)imidazo[4,5-b]pyridin-2-yl]benzimidazol-2-one] | ≥ 80 | ≥ 80 |  |  |  |  | 
2 | CCS(=O)(=O)c1cc2c(cc1-c1nc3cc([S+]([O-])C(F)(F)F)ccc3n1C)n(C)c(=O)n2C (stereo not shown) [Compound P44, 5-ethylsulfonyl-1,3-dimethyl-6-[1-methyl-5-(trifluoromethyl-sulfinyl)benzimidazol-2-yl]benzimidazol-2-one] | ≥ 80 | ≥ 80 | ≥ 80 | ≥ 80 |  |  | 
3 | CCSc1cc2c(nc1-c1nc3cc(C(F)(F)F)cnc3n1C)n(C)c(=O)n2C [Compound P24, 6-ethylsulfanyl-1,3-dimethyl-5-[3-methyl-6-(trifluoromethyl)imidazo[4,5-b]pyridine-2-yl]imidazo[4,5-b]pyridine-2-one] |  |  |  |  | ≥ 80 |  | 
4 | CCS(=O)(=O)c1cc2c(cc1-c1nc3cc(S(=O)(=O)C(F)(F)F)ccc3n1C)n(C)c(=O)n2C [Compound P37, 5-ethylsulfonyl-1,3-dimethyl-6-[1-methyl-5-(trifluoromethyl-sulfonyl)benzimidazol-2-yl]benzimidazol-2-one] | ≥ 80 |  | ≥ 80 | ≥ 80 |  |  | 
5 | CCS(=O)(=O)c1cc2c(cc1-c1nc3cc(C(F)(F)F)cnc3n1C)n(CC(F)(F)F)c(=O)n2C [Compound P19, 6-ethylsulfonyl-1-methyl-5-[3-methyl-6-(trifluoromethyl)imidazo[4,5-b]pyridine-2-yl]-3-(2,2,2-trifluoroethyl) benzimidazol-2-one] | ≥ 80 | ≥ 80 | ≥ 80 |  | ≥ 80 | ≥ 80 | 
6 | CCS(=O)(=O)c1cc2c(nc1-c1nc3cc([S+]([O-])C(F)(F)F)ccc3n1C)n(C)c(=O)n2C (stereo not shown) [Compound P43, 6-ethylsulfonyl-1,3-dimethyl-5-[1-methyl-5-(trifluoromethyl-sulfinyl)benzimidazol-2-yl]imidazo[4,5-b]pyridin-2-one] | ≥ 80 | ≥ 80 | ≥ 80 | ≥ 80 |  |  | 
7 | CCS(=O)(=O)c1cc2c(nc1-c1nc3cc(S(=O)(=O)C(F)(F)F)ccc3o1)n(C)c(=O)n2C [Compound P26, 6-ethylsulfonyl-1,3-dimethyl-5-[5-(trifluoromethylsulfonyl)-1,3-benzoxazol-2-yl]imidazo[4,5-b]pyridine-2-one] |  |  |  | ≥ 80 | ≥ 80 | ≥ 80 | 
8 | CCOC(=O)n1c(=O)n(C)c2cc(S(=O)(=O)CC)c(-c3nc4cc(C(F)(F)F)cnc4n3C)cc21 [Compound P23, ethyl 5-ethylsulfonyl-3-methyl-6-[3-methyl-6-(trifluoromethyl)imidazo[4,5-b]pyridine-2-yl]-2-oxo-benzimidazole-1-carboxylate] | ≥ 80 | ≥ 80 |  |  | ≥ 80 |  | 
9 | CCS(=O)(=O)c1cc2c(cc1-c1nc3cc(C(F)(F)F)ccc3o1)n(C)c(=O)n2C [Compound P40, 5-ethylsulfonyl-1,3-dimethyl-6-[5-(trifluoromethyl)-1,3-benzoxazol-2-yl]benzimidazol-2-one] |  |  |  | ≥ 80 |  |  | 
10 | CCS(=O)(=O)c1cc2c(cc1-c1nc3cc(C(F)(F)F)cnc3n1C)n(CS(C)(=O)=O)c(=O)n2C [Compound P16, 6-ethylsulfonyl-1-methyl-3-(methylsulfonylmethyl)-5-[3-methyl-6-(trifluoromethyl)imidazo[4,5-b]pyridine-2-yl]benzimidazol-2-one] | ≥ 80 | ≥ 80 | ≥ 80 |  |  |  | ≥ 80
11 | CCS(=O)(=O)c1cc2c(cc1-c1nc3cc(C(F)(F)F)nnc3n1C)n(C)c(=O)n2C [Compound P11, 5-ethylsulfonyl-1,3-dimethyl-6-[7-methyl-3-(trifluoromethyl)imidazo[4,5-c]pyridazin-6-yl]benzimidazol-2-one] | ≥ 80 | ≥ 80 | ≥ 80 |  |  |  | 
12 | CCS(=O)(=O)c1cc2c(cc1-c1nc3cc(C(F)(F)F)cnc3n1C)n(C#N)c(=O)n2C [Compound P14, 5-ethylsulfonyl-3-methyl-6-[3-methyl-6-(trifluoromethyl)imidazo[4,5-b]pyridin-2-yl]-2-oxo-benzimidazole-1-carbonitrile] | ≥ 80 | ≥ 80 | ≥ 80 |  |  |  | ≥ 80
13 | CCSc1cc2c(cc1-c1nc3cc(SC(F)(F)F)ccc3n1C)n(C)c(=O)n2C [Compound P42, 5-ethylsulfanyl-1,3-dimethyl-6-[1-methyl-5-(trifluoromethyl-sulfanyl)benzimidazol-2-yl]benzimidazol-2-one] |  |  | ≥ 80 | ≥ 80 |  |  | 
14 | CCSc1cc2c(cc1-c1nc3cc(C(F)(F)F)ncc3n1C)n(C)c(=O)n2C [Compound P10, 5-ethylsulfanyl-1,3-dimethyl-6-[3-methyl-6-(trifluoromethyl)imidazo[4,5-c]pyridin-2-yl]benzimidazol-2-one] |  |  | ≥ 80 |  |  |  | 
15 | CCS(=O)(=O)c1cc2c(cc1-c1nc3cc(C(F)(F)F)cnc3n1C)n(C(=O)C1CC1)c(=O)n2C [Compound P20, 1-(cyclopropanecarbonyl)-5-ethylsulfonyl-3-methyl-6-[3-methyl-6-(trifluoromethyl)imidazo[4,5-b]pyridine-2-yl]benzimidazol-2-one] | ≥ 80 |  |  |  |  |  | 
16 | CCS(=O)(=O)c1cc2c(cc1-c1nc3cc(SC(F)(F)F)ccc3o1)n(C)c(=O)n2C [Compound P29, 5-ethylsulfonyl-1,3-dimethyl-6-[5-(trifluoromethylsulfanyl)-1,3-benzoxazol-2-yl]benzimidazol-2-one] |  |  | ≥ 80 | ≥ 80 | ≥ 80 | ≥ 80 | 
17 | CCS(=O)(=O)c1cc2c(nc1-c1nc3cc(SC(F)(F)F)ccc3o1)n(C)c(=O)n2C [Compound P35, 6-ethylsulfonyl-1,3-dimethyl-5-[5-(trifluoromethylsulfanyl)-1,3-benzoxazol-2-yl]imidazo[4,5-b]pyridin-2-one] |  |  |  | ≥ 80 | ≥ 80 | ≥ 80 | 
18 | CCS(=O)(=O)c1cc2c(cc1-c1nc3cc(C(F)(F)F)cnc3n1C)n(CSC)c(=O)n2C [Compound P17, 6-ethylsulfonyl-1-methyl-3-(methylsulfanylmethyl)-5-[3-methyl-6-(trifluoromethyl)imidazo[4,5-b]pyridine-2-yl]benzimidazol-2-one] | ≥ 80 | ≥ 80 | ≥ 80 |  |  |  | 
19 | CCS(=O)(=O)c1cc2c(cc1-c1nc3cc(S(=O)(=O)C(F)(F)F)ccc3o1)n(C)c(=O)n2C [Compound P25, 5-ethylsulfonyl-1,3-dimethyl-6-[5-(trifluoromethylsulfonyl)-1,3-benzoxazol-2-yl]benzimidazol-2-one] |  |  | ≥ 80 | ≥ 80 | ≥ 80 | ≥ 80 | 
